{"source": "ChEMBL document CHEMBL2331311", "about": "“Photoprotection of DNA (in vitro) by acyclothymidine dinucleosides” (Bioorg Med Chem Lett, 2013)", "key": {"[1]": {"test": "Photoprotection against UV light-induced Escherichia coli pEGFP-C1 DNA damage at 10 mM treated in 1N NaOH solution measured for 2 hrs by agarose gel electrophoresis", "format": "functional"}, "[2]": {"test": "Photoprotection against UV light-induced Escherichia coli pEGFP-C1 DNA damage at 10 mM treated in cream formulation measured for 2 hrs by agarose gel electrophoresis", "format": "functional"}, "[3]": {"test": "Cytotoxicity against mouse Cloudman S91 cells assessed as cell viability after 72 hrs by MTT assay", "format": "cell-based", "conditions": "S91, 72 h"}, "Vero": {"system": "Vero", "test": "Cytotoxicity against african green monkey Vero cells assessed as cell viability after 72 hrs by MTT assay", "format": "cell-based", "conditions": "Chlorocebus sabaeus"}, "MCF-10A": {"system": "MCF-10A", "test": "Cytotoxicity against human MCF10A cells assessed as cell viability after 72 hrs by MTT assay", "format": "cell-based"}, "[4]": {"test": "Cytotoxicity against human fibroblasts assessed as cell viability after 72 hrs by MTT assay", "format": "cell-based", "conditions": "Fibroblast"}, "RPMI-8226": {"system": "RPMI-8226", "test": "Photoprotection against UV light-induced DNA damage in human RPMI8226 cells at 10 mM treated in cream formulation measured for 3 hrs by agarose gel electrophoresis", "format": "functional, cell-based"}}, "note": "Active and inactive are the calls of the source. No cut-off for these calls is given here.", "data": [{"compound": "Cc1cn(CCCn2cc(C)c(=O)[nH]c2=O)c(=O)[nH]c1=O", "values": [{"measurement": "Activity", "setting": "[1]", "result": "Active"}, {"measurement": "Activity", "setting": "[2]", "result": "Active"}, {"measurement": "EC50", "setting": "[3]", "result": "> 100", "unit": "µM"}, {"measurement": "EC50", "setting": "Vero", "result": "> 100", "unit": "µM"}, {"measurement": "EC50", "setting": "MCF-10A", "result": "> 100", "unit": "µM"}, {"measurement": "EC50", "setting": "[4]", "result": "> 100", "unit": "µM"}, {"measurement": "Activity", "setting": "RPMI-8226", "result": "Active"}]}]}
